Source: patent US20240307319A1, “IONIZABLE LIPID MOLECULE, PREPARATION METHOD THEREFOR, AND APPLICATION THEREOF IN PREPARATION OF LIPID NANOPARTICLE” (IMMORNA (HANGZHOU) BIOTECHNOLOGY CO., LTD., priority 2021, published 2024)

System: BHK cells
Assay: Protein in vitro expression ability of eGFP mRNA lipid nanoparticle compositions in BHK cells by flow cytometer
Assay type: cell-based
Details: 24-hour co-incubation, MC3 LNP without mRNA set as 0; for Fluorescent protein expression rate (0.1 μg): 0.1 μg LNP composition with eGFP mRNA; for Fluorescent protein expression rate (0.5 μg): 0.5 μg LNP composition with eGFP mRNA
Description: BHK cells were from ATCC and maintained at 37° C. under 5% CO2 in Dulbecco's modified Eagle medium (HyClone) supplemented with 10% fetal bovine serum (HyClone). 0.1 μg or 0.5 μg of the lipid nanoparticle composition prepared by the ionizable lipid compound of the invention or the commercial MC3 nanoparticle composition was co-incubated with the BHK cells to deliver the mRNA nucleic acid encoding the enhanced green fluorescent protein contained therein into the BHK cells to express the corresponding protein. After 24-hour co-incubation, the cells were digested with trypsin and collected, and signal intensity of intracellular green fluorescent protein was collected using a flow cytometer. Analysis of relative protein expression rates was performed using a cell group to which the commercial MC3 nanoparticle composition not containing mRNA encoding enhanced green fluorescent protein was added as a control.
The fluorescence intensity obtained after the commercial MC3 nanoparticle composition not containing mRNA encoding enhanced green fluorescent protein was co-incubated with cells is set as the base point, with the green fluorescent protein expression rate being 0.

Compound | Fluorescent protein expression rate (0.1 μg) | Fluorescent protein expression rate (0.5 μg)
CCCCCCCCCOC(=O)CCCCCCCOc1ccc(OCCCCCCCC(=O)OCCCCCCCCC)c(COC(=O)CCCN(C)C)c1 [Compound I] | 82.60% | 93.51%
CCCCC/C=C\C/C=C\CCCCCCCCC(CCCCCCCC/C=C\C/C=C\CCCCC)OC(=O)CCCN(C)C [MC3, Dlin-MC3-DMA] | 95.87% | 99.99%
